Measured values as given in patent US10221138B2, “Biaryl derivatives as GPR120 agonists” (LG CHEM, LTD., priority 2013, dated 2019).

Target: T1, hGPR120 (Homo sapiens, UniProt Q5NUL3)
T1 construct: expressed in transfected cells; host or cells: CHO-K1
T1 sequence (Q5NUL3 1-361): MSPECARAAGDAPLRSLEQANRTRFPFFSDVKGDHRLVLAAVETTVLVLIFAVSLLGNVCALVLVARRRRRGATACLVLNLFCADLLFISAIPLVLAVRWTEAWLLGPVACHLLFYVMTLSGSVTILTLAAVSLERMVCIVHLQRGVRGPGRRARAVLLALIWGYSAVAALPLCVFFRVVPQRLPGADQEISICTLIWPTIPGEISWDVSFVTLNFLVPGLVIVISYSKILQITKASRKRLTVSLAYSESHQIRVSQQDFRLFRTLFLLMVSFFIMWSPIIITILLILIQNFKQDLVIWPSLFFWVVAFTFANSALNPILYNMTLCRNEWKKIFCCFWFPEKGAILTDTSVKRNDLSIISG
Assay: Measurement of activity of GPR120 agonist (cell-based calcium fluorescence assay)
Settings: CHO-K1 cells expressing Ga16 and hGPR120, Calcium 5 dye fluorescence; activity class; read-out: EC50
Method in brief: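 CHO-K1 cells co-expressing Gα16 and hGPR120, plated 18 h, loaded with Calcium 5 dye for 1 h at 37 °C, then given serially diluted agonists (final 0.5% DMSO). Fluorescence increase expressed as relative % of the 1% DMSO-only signal.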

EC50 [nM] | SMILES
< 200 | O=C(O)CCCCOc1ccc(-c2cccnc2OC2CCCC2)cc1F [Example 267, 5-[4-(2-cyclopentyloxy-pyridin-3-yl)-2-fluoro-phenoxy]-pentanoic acid]
200 to 2000 | COc1ncccc1-c1cc(F)c(OCCCC(=O)O)c(F)c1 [Example 268, 4-[2,6-difluoro-4-(2-methoxy-pyridin-3-yl)-phenoxy]-butyric acid]
200 to 2000 | C=CCOc1ncccc1-c1cc(F)c(OCCCC(=O)O)c(F)c1 [Example 269, 4-[4-(2-allyloxy-pyridin-3-yl)-2,6-difluoro-phenoxy]-butyric acid]
2000 to 20000 | CC#CCOc1ncccc1-c1cc(F)c(OCCCC(=O)O)c(F)c1 [Example 270, 4-[4-(2-but-2-ynyloxy-pyridin-3-yl)-2,6-difluoro-phenoxy]-butyric acid]
< 200 | O=C(O)CCCCCOc1c(F)cc(-c2cccnc2OCC2CCC2)cc1F [Example 272, 6-[4-[2-(cyclobutylmethoxy)-3-pyridyl]-2,6-difluoro-phenoxy]hexanoic acid]
200 to 2000 | O=C(O)CCCCCOc1c(F)cc(-c2cccnc2OCC2CC2)cc1F [Example 273, 6-[4-[2-(cyclopropylmethoxy)-3-pyridyl]-2,6-difluoro-phenoxy]hexanoic acid]
< 200 | O=C(O)CCCCCOc1c(F)cc(-c2cccnc2SC2CCC2)cc1F [Example 274, 6-[4-(2-cyclobutylsulfanyl-3-pyridyl)-2,6-difluoro-phenoxy]hexanoic acid]
200 to 2000 | O=C(O)CCCCCOc1c(F)cc(-c2cccnc2SC2CCCC2)cc1F [Example 275, 6-[4-(2-cyclopentylsulfanyl-3-pyridyl)-2,6-difluoro-phenoxy]hexanoic acid]
200 to 2000 | O=C(O)CCCCCSc1c(F)cc(-c2cccnc2OC2CCCC2)cc1F [Example 276, 6-[4-(2-cyclopentyloxy-pyridin-3-yl)-2,6-difluoro-phenylsulfanyl]-hexanoic acid]
200 to 2000 | O=C(O)CCCCCSc1c(F)cc(-c2cccnc2SC2CCCC2)cc1F [Example 277, 6-[4-(2-cyclopentylsulfanyl-pyridin-3-yl)-2,6-difluoro-phenylsulfanyl]-hexanoic acid]
200 to 2000 | O=C(O)CCCCCSc1c(F)cc(-c2cccnc2SC2CCC2)cc1F [Example 278, 6-[4-(2-cyclobutylsulfanyl-pyridin-3-yl)-2,6-difluoro-phenylsulfanyl]-hexanoic acid]
200 to 2000 | CCCSc1ncccc1-c1cc(F)c(SCCCCCC(=O)O)c(F)c1 [Example 279, 6-[2,6-difluoro-4-(2-propylsulfanyl-pyridin-3-yl)-phenylsulfanyl]-hexanoic acid]

SMILES | EC50 [nM]
O=C(O)CCCCCOc1c(F)cc(-c2cccnc2OC2CCC2)cc1F [Example 271, 6-[4-[2-(cyclobutoxy)-3-pyridyl]-2,6-difluoro-phenoxy]hexanoic acid] | 200 to 2000
